Measured values from patent US10508085B2, “Compounds and methods for IDO and TDO modulation, and indications therefor” (Plexxikon Inc., priority 2016, dated 2019).

Key:
[1] = target: T1, human IDO (IDO1-expressing HEK293 cells) (Homo sapiens, UniProt P14902); assay: Cell based kynurenine assay, IDO1-expressing HEK293 cell clones; details: IDO1-expressing HEK293 cells, 24 hours incubation; geometric mean; read-out: HEK293 IDO1 Kynurenine GMean IC50 (μM) (Cellular Assay)
T1 construct: expressed in transfected cells
T1 sequence (P14902 whole entry): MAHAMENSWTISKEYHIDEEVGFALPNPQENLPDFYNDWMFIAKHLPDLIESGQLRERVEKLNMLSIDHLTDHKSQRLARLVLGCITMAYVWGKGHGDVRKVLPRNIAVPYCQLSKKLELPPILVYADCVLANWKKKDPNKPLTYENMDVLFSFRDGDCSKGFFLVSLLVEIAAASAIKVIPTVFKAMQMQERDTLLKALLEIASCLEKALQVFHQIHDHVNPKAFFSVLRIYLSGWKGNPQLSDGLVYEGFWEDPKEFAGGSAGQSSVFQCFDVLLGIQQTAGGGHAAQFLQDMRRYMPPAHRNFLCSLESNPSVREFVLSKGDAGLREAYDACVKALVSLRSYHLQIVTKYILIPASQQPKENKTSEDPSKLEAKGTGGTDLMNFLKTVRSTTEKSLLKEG
How it was run: (§1)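 Cellular IDO1 and TDO activity is followed as kynurenine released by stably transfected HEK293 clones over 24 h with test compound. Controls are DMSO-treated cells and media alone.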

[2] = target: T2, Human Tryptophan 2,3-dioxygenase (TDO) (Homo sapiens, UniProt P48775); assay: Human TDO enzymatic assay (kynurenine level); type: biochemical; details: 1 nM TDO, 350 μM L-Trp; geometric mean; read-out: TDO GMean: IC50 (μM) (Biochemical Assay)
T2 construct: His tag (N); made in house; host or cells: E. coli
T2 sequence (P48775 whole entry): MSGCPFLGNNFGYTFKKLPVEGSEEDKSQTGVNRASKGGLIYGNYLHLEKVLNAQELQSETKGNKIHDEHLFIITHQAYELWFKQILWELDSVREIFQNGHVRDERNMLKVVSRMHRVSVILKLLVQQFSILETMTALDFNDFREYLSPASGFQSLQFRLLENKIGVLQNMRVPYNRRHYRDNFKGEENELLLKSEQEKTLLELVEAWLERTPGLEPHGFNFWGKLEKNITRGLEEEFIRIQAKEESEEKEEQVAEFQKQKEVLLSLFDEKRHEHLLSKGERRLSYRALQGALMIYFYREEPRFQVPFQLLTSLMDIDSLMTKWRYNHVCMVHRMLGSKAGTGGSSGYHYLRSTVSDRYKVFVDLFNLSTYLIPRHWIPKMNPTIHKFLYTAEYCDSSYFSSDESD
How it was run: (§2)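 N-terminally His-tagged enzymes expressed in E. coli were run in 50 mM sodium phosphate pH 6.5 with 10 mM ascorbate, catalase and Tween 20. IDO: 6 nM enzyme, 10 μM L-Trp, 5 μM methylene blue, 20 min RT. TDO: 1 nM enzyme, 350 μM L-Trp, 0.4 μM methylene blue, 70 min RT.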

[3] = target: T3, Human Indoleamine 2,3-dioxygenase (IDO) (Homo sapiens, UniProt P14902); assay: Human IDO enzymatic assay (kynurenine level); type: biochemical; details: 6 nM IDO, 10 μM L-Trp; geometric mean; read-out: IDO1 GMean: IC50 (μM) (Biochemical Assay)
T3 construct: His tag (N); made in house; host or cells: E. coli
T3 sequence (P14902 whole entry): as the sequence (P14902 whole entry) above
How it was run: as §2

[4] = target: T4, human TDO (TDO-expressing HEK293 cells) (Homo sapiens, UniProt P48775); assay: Cell based kynurenine assay, TDO-expressing HEK293 cell clones; details: TDO-expressing HEK293 cells, 24 hours incubation; geometric mean; read-out: HEK293 TDO Kynurenine GMean IC50 (μM) (Cellular Assay)
T4 construct: expressed in transfected cells
T4 sequence (P48775 whole entry): as the sequence (P48775 whole entry) above
How it was run: as §1

SMILES	IC50 [1]	IC50 [2]	IC50 [3]	IC50 [4]
COC(=O)N1CC2CCC(C1)C2CC(O)c1cc(Cl)cc2cn[nH]c12 (centres unmarked) [Compound P-0329, methyl 8-(2-(5-chloro-1H-indazol-7-yl)-2-hydroxyethyl)-3-azabicyclo [3.2.1]octane-3-carboxylate]	0.0001 to 10 µM	0.0001 to 10 µM	0.0001 to 10 µM	0.0001 to 10 µM
CNS(=O)(=O)N1CCC(C(F)(F)C(O)c2cc(Cl)cc3cn[nH]c23)CC1 (centres unmarked) [Compound P-0330, 4-(2-(5-chloro-1H-indazol-7-yl)-1,1-difluoro-2-hydroxyethyl)-N-methylpiperidine-1-sulfonamide]	0.0001 to 10 µM	0.0001 to 10 µM	0.0001 to 10 µM	0.0001 to 10 µM
CCNS(=O)(=O)N1CCC(C(F)(F)C(O)c2cc(Cl)cc3cn[nH]c23)CC1 (centres unmarked) [Compound P-0331, 4-(2-(5-chloro-1H-indazol-7-yl)-1,1-difluoro-2-hydroxyethyl)-N-ethylpiperidine-1-sulfonamide]	0.0001 to 10 µM	0.0001 to 10 µM	0.0001 to 10 µM	0.0001 to 10 µM
CC(C)NS(=O)(=O)N1CCC(C(F)(F)C(O)c2cc(Cl)cc3cn[nH]c23)CC1 (centres unmarked) [Compound P-0332, 4-(2-(5-chloro-1H-indazol-7-yl)-1,1-difluoro-2-hydroxyethyl)-N-isopropylpiperidine-1-sulfonamide]	0.0001 to 10 µM	0.0001 to 10 µM	0.0001 to 10 µM	0.0001 to 10 µM
O=C(NCC(F)(F)F)N1CCC(C(F)(F)C(O)c2cc(Cl)cc3cn[nH]c23)CC1 (centres unmarked) [Compound P-0333, 4-(2-(5-chloro-1H-indazol-7-yl)-1,1-difluoro-2-hydroxyethyl)-N-(2,2,2-trifluoroethyl) piperidine-1-carboxamide]	0.0001 to 10 µM	0.0001 to 10 µM	0.0001 to 10 µM	0.0001 to 10 µM
O[C@H](c1c(F)c(Cl)cc2cn[nH]c12)C12CCC(CC1)CC2 [Compound P-0334, (S)-bicyclo[2.2.2]octan-1-yl(5-chloro-6-fluoro-1H-indazol-7-yl)methanol]	0.0001 to 10 µM	0.0001 to 10 µM	0.0001 to 10 µM	0.0001 to 10 µM
O[C@@H](c1c(F)c(Cl)cc2cn[nH]c12)C12CCC(CC1)CC2 [Compound P-0335, (R)-bicyclo[2.2.2]octan-1-yl(5-chloro-6-fluoro-1H-indazol-7-yl)methanol]	0.0001 to 10 µM	0.0001 to 10 µM	0.0001 to 10 µM	> 10 µM
OC1(c2cc(Cl)cc3[nH]ncc23)CC2(CCC2)C1 [Compound P-0336, 2-(6-chloro-1H-indazol-4-yl)spiro[3.3] heptan-2-ol]	> 10 µM	0.0001 to 10 µM	10 to 100 µM	0.0001 to 10 µM
CC(C)(C)OC(=O)N1CCC(C(C)(C)[C@H](O)c2cc(Cl)cc3cn[nH]c23)CC1 [Compound P-0337, tert-butyl (S)-4-(1-(5-chloro-1H-indazol-7-yl)-1-hydroxy-2-methylpropan-2-yl)piperidine-1-carboxylate]	0.0001 to 10 µM	0.0001 to 10 µM	0.0001 to 10 µM	0.0001 to 10 µM
CC(C)(C)OC(=O)N1CCC(C(C)(C)[C@@H](O)c2cc(Cl)cc3cn[nH]c23)CC1 [Compound P-0338, tert-butyl (R)-4-(1-(5-chloro-1H-indazol-7-yl)-1-hydroxy-2-methylpropan-2-yl)piperidine-1-carboxylate]	> 10 µM	0.0001 to 10 µM	0.0001 to 10 µM	0.0001 to 10 µM
CC(C)(C1CCN(C(=O)Nc2ccc(F)cc2)CC1)[C@@H](O)c1cc(Cl)cc2cn[nH]c12 [Compound P-0339, (R)-4-(1-(5-chloro-1H-indazol-7-yl)-1-hydroxy-2-methylpropan-2-yl)-N-(4-fluorophenyl) piperidine-1-carboxamide]	0.0001 to 10 µM	0.0001 to 10 µM	0.0001 to 10 µM	0.0001 to 10 µM

The next lines start with the values.

IC50 [1]	IC50 [2]	IC50 [3]	IC50 [4]	SMILES
0.0001 to 10 µM	0.0001 to 10 µM	0.0001 to 10 µM	0.0001 to 10 µM	CC(C)(C(O)c1cc(Cl)cc2cn[nH]c12)[C@H]1C[C@H]2CC[C@@H](C1)N2C(N)=O (some centres unmarked) [Compound P-0340]
0.0001 to 10 µM	0.0001 to 10 µM	0.0001 to 10 µM	0.0001 to 10 µM	O=C(c1cccnc1)N1CCC(C(F)(F)C(O)c2c(F)c(Cl)cc3cn[nH]c23)CC1 (centres unmarked) [Compound P-0341, (4-(2-(5-chloro-6-fluoro-1H-indazol-7-yl)-1,1-difluoro-2-hydroxyethyl)piperidin-1-yl)(pyridin-3-yl)methanone]
0.0001 to 10 µM	0.0001 to 10 µM	0.0001 to 10 µM	0.0001 to 10 µM	COC(=O)N1CCC(C(F)(F)C(O)c2c(F)c(Cl)cc3cn[nH]c23)CC1 (centres unmarked) [Compound P-0342, methyl 4-(2-(5-chloro-6-fluoro-1H-indazol-7-yl)-1,1-difluoro-2-hydroxyethyl) piperidine-1-carboxylate]
0.0001 to 10 µM	0.0001 to 10 µM	0.0001 to 10 µM	0.0001 to 10 µM	O=C(C1CC1)N1CCC(C(F)(F)C(O)c2c(F)c(Cl)cc3cn[nH]c23)CC1 (centres unmarked) [Compound P-0343, (4-(2-(5-chloro-6-fluoro-1H-indazol-7-yl)-1,1-difluoro-2-hydroxyethyl)piperidin-1-yl)(cyclopropyl) methanone]
0.0001 to 10 µM	0.0001 to 10 µM	0.0001 to 10 µM	0.0001 to 10 µM	CC(C)(C1CCN(C(=O)Nc2ccc(F)cc2)CC1)[C@H](O)c1cc(Cl)cc2cn[nH]c12 [Compound P-0344, (S)-4-(1-(5-chloro-1H-indazol-7-yl)-1-hydroxy-2-methylpropan-2-yl)-N-(4-fluorophenyl)piperidine-1-carboxamide]
0.0001 to 10 µM	0.0001 to 10 µM	0.0001 to 10 µM	0.0001 to 10 µM	NS(=O)(=O)N1CCC(C(F)(F)C(O)c2cc(Cl)cc3cn[nH]c23)CC1 (centres unmarked) [Compound P-0345, 4-(2-(5-chloro-1H-indazol-7-yl)-1,1-difluoro-2-hydroxyethyl) piperidine-1-sulfonamide]
0.0001 to 10 µM	0.0001 to 10 µM	0.0001 to 10 µM	0.0001 to 10 µM	NC(=O)N1CCC2(CC1)CC(O)(c1cc(Cl)cc3cn[nH]c13)C2 [Compound P-0346, 2-(5-chloro-1H-indazol-7-yl)-2-hydroxy-7-azaspiro[3.5] nonane-7-carboxamide]
0.0001 to 10 µM	0.0001 to 10 µM	0.0001 to 10 µM	0.0001 to 10 µM	CC(C)(C(O)c1cc(Cl)cc2cn[nH]c12)[C@H]1C[C@H]2CC[C@@H](C1)N2S(N)(=O)=O (stereo partly drawn) [Compound P-0347, (1R,3r,5S)-3-(1-(5-chloro-1H-indazol-7-yl)-1-hydroxy-2-methylpropan-2-yl)-8-azabicyclo[3.2.1] octane-8-sulfonamide]
> 10 µM	0.0001 to 10 µM	0.0001 to 10 µM	0.0001 to 10 µM	COC12CCC(C(O)c3cc(Cl)cc4[nH]ncc34)(CC1)CC2 (centres unmarked) [Compound P-0348, (6-chloro-1H-indazol-4-yl)(4-methoxybicyclo [2.2.2]octan-1-yl)methanol]
0.0001 to 10 µM	0.0001 to 10 µM	0.0001 to 10 µM	0.0001 to 10 µM	O=C(C1CCC1)N1CCC(C(F)(F)C(O)c2cc(Cl)cc3cn[nH]c23)CC1 (centres unmarked) [Compound P-0349, (4-(2-(5-chloro-1H-indazol-7-yl)-1,1-difluoro-2-hydroxyethyl)piperidin-1-yl)(cyclobutyl) methanone]
0.0001 to 10 µM	0.0001 to 10 µM	0.0001 to 10 µM	0.0001 to 10 µM	COCC(=O)N1CCC(C(F)(F)C(O)c2cc(Cl)cc3cn[nH]c23)CC1 (centres unmarked) [Compound P-0350, 1-(4-(2-(5-chloro-1H-indazol-7-yl)-1,1-difluoro-2-hydroxyethyl)piperidin-1-yl)-2-methoxyethan-1-one]
0.0001 to 10 µM	0.0001 to 10 µM	0.0001 to 10 µM	0.0001 to 10 µM	CC(C)C(=O)N1CCC(C(F)(F)C(O)c2cc(Cl)cc3cn[nH]c23)CC1 (centres unmarked) [Compound P-0351, 1-(4-(2-(5-chloro-1H-indazol-7-yl)-1,1-difluoro-2-hydroxyethyl)piperidin-1-yl)-2-methylpropan-1-one]
> 10 µM	0.0001 to 10 µM	10 to 100 µM	0.0001 to 10 µM	OC1(c2cc(Cl)cc3[nH]ncc23)CC2(CC2)C1 [Compound P-0352, 5-(6-chloro-1H-indazol-4-yl)spiro[2.3] hexan-5-ol]
0.0001 to 10 µM	0.0001 to 10 µM	0.0001 to 10 µM	0.0001 to 10 µM	CC(C)(C1CCN(C(=O)NS(=O)(=O)c2ccccc2)CC1)C(O)c1cc(Cl)cc2cn[nH]c12 (centres unmarked) [Compound P-0353, 4-(1-(5-chloro-1H-indazol-7-yl)-1-hydroxy-2-methylpropan-2-yl)-N-(phenylsulfonyl) piperidine-1-carboxamide]
0.0001 to 10 µM	0.0001 to 10 µM	0.0001 to 10 µM	0.0001 to 10 µM	C[C@H](NC(=O)N1CCC(C(C)(C)C(O)c2cc(Cl)cc3cn[nH]c23)CC1)c1ccccc1 (stereo partly drawn) [Compound P-0354, 4-(1-(5-chloro-1H-indazol-7-yl)-1-hydroxy-2-methylpropan-2-yl)-N-((S)-1-phenylethyl) piperidine-1-carboxamide]
